Data: ChEMBL document CHEMBL1137264, “Carbonic anhydrase inhibitors. Inhibition of the cytosolic human isozymes I and II, and the transmembrane, tumor-associated isozymes IX and XII with substituted aromatic sulfonamides activatable in hypoxic tumors” (Bioorg Med Chem Lett, 2006)
Values joined by “and” are separate entries in the source; they are usually repeats but may differ in a detail not shown here. Equal values may be shown once.

How the values were obtained:
[1] = biological target: Carbonic anhydrase 9 (Homo sapiens, UniProt Q16790)
Description: Inhibition of human cloned CA9 catalytic domain by CO2 hydration assay

[2] = biological target: Carbonic anhydrase 1 (Homo sapiens, UniProt P00915)
Description: Inhibition of human cloned CA1 by CO2 hydration assay

[3] = biological target: Carbonic anhydrase 2 (Homo sapiens, UniProt P00918)
Description: Inhibition of human cloned CA2 by CO2 hydration assay

[4] = biological target: Carbonic anhydrase 12 (Homo sapiens, UniProt O43570)
Chain of Carbonic anhydrase 12 (O43570 whole entry): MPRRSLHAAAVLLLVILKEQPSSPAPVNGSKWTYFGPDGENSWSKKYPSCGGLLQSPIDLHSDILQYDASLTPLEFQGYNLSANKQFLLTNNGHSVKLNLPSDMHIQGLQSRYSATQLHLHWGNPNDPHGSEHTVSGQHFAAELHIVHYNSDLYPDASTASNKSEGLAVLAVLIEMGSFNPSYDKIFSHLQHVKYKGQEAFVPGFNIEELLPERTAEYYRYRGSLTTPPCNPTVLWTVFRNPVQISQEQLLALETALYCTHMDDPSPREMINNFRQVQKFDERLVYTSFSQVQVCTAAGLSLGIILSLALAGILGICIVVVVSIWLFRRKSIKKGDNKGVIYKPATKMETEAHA
Description: Inhibition of human cloned CA12 catalytic domain by CO2 hydration assay

Chain of Carbonic anhydrase 1 (P00915 whole entry): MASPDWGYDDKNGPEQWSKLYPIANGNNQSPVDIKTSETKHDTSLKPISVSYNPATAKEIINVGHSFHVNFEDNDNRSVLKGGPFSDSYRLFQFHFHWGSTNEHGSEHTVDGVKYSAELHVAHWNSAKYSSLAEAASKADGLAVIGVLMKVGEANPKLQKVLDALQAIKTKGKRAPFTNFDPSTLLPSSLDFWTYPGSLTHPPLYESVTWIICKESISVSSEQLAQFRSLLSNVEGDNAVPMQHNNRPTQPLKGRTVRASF

| Ki [1] | Ki [2] | Ki [3] | Ki [4] | SMILES |
| --- | --- | --- | --- | --- |
| 1.84 µM | 5.1 µM | 0.0096 µM | 1.35 µM | COC(=O)CS(=O)(=O)c1cc(Cl)c(C)cc1S(N)(=O)=O |
| 0.766 µM | 22.1 µM | 4.62 µM | 0.19 µM | NS(=O)(=O)c1cc(C(=O)N2CCCC2)c(Cl)cc1SSc1cc(Cl)c(C(=O)N2CCCC2)cc1S(N)(=O)=O |
| 3.42 µM | 14.2 µM | 0.536 µM | 2.42 µM | Cc1cc(S(N)(=O)=O)c(S(=O)(=O)C(C)C(=O)NN)cc1Cl (stereo unspecified) |
| 0.0409 µM | 19.7 µM | 0.0199 µM | 0.0356 µM | NS(=O)(=O)c1cc(C(=O)NCc2ccccc2)c(Cl)cc1S |
| 5.44 µM | 11.6 µM | 0.547 µM | 2.4 µM | Cc1cc(S(N)(=O)=O)c(S(=O)(=O)CC(=O)O)cc1Cl |
| > 10 µM | 113 µM | > 10 µM | > 10 µM | Cc1cc(S(N)(=O)=O)c(S/C(=N\NS(=O)(=O)c2ccccc2)c2ccccc2)cc1Cl |
| > 10 µM | 82.1 µM | 6.1 µM | > 10 µM | NS(=O)(=O)c1cc(C(=O)NCc2ccccc2)c(Cl)cc1SSc1cc(Cl)c(C(=O)NCc2ccccc2)cc1S(N)(=O)=O |
| 0.78 µM | 310 µM | > 10 µM | 1.97 µM | NS(=O)(=O)c1cc2c(cc1SSc1cc3c(cc1S(N)(=O)=O)S(=O)(=O)NCN3)NCNS2(=O)=O |
| 0.113 µM and 0.115 µM | 7.5 µM and 7.3 µM | 0.0086 µM and 0.0087 µM | 0.117 µM and 0.118 µM | NS(=O)(=O)c1cc2c(cc1S)NCNS2(=O)=O |
| 0.139 µM | 10.9 µM | 3.8 µM | 0.108 µM | CSc1cc2c(cc1S(N)(=O)=O)S(=O)(=O)NCN2 |
| 0.056 µM | 6.4 µM | 0.0185 µM | 0.053 µM | CCOC(=O)c1cc(S(N)(=O)=O)c(S)cc1Cl |
| > 10 µM | 220 µM | > 10 µM | > 10 µM | CC/C(=N/Nc1ccc([N+](=O)[O-])cc1)Sc1cc(Cl)c(C)cc1S(N)(=O)=O |
| 1.61 µM | 5.8 µM | 0.244 µM | 1.1 µM | COC(=O)C(C)S(=O)(=O)c1cc(Cl)c(C)cc1S(N)(=O)=O (stereo unspecified) |
| > 10 µM | 7.8 µM | 5.57 µM | > 10 µM | CCOC(=O)c1cc(S(N)(=O)=O)c(SSc2cc(Cl)c(C(=O)OCC)cc2S(N)(=O)=O)cc1Cl |
| 5 µM | 27.3 µM | 0.806 µM | 3.05 µM | Cc1cc(S(N)(=O)=O)c(S(=O)(=O)C(C)C(=O)O)cc1Cl (stereo unspecified) |
| > 10 µM | 379 µM | > 10 µM | > 10 µM | Cc1cc(S(N)(=O)=O)c(S/C(=N\Nc2ccc([N+](=O)[O-])cc2)c2ccccc2)cc1Cl |
| > 10 µM | 392 µM | 2.68 µM | 1 µM | CC(C)CSc1cc2c(cc1S(N)(=O)=O)S(=O)(=O)NCN2 |
| 0.0145 µM | 2.6 µM | 0.0196 µM | 0.02 µM | NS(=O)(=O)c1cc(C(=O)N2CCCC2)c(Cl)cc1S |
| 1.44 µM | 7.7 µM | 0.0092 µM | 1.39 µM | Cc1cc(S(N)(=O)=O)c(S(=O)(=O)CC(=O)NN)cc1Cl |
